Our source for the melting point values is a melting point compilation (Tetko et al.).

One may read the melting point as the temperature, or range, at which the solid turns liquid. `O=Cc1ccccc1-n1cccn1` registered a melting point of 58 °C. Molecule `c1ccc2c(N=Nc3cccc4ccccc34)cccc2c1` showed a melting point of 190 °C. With `O=Cc1c[nH]c2cccc(Br)c12` the figure was 179 to 180 °C; with `CC1CCc2cc3c(cc2N1)CCC(C)N3` (stereo unspecified), 125 to 134 °C.

As to `NS(=O)(=O)c1ccc(F)cc1C(F)(F)F`, the melting point was determined as 167 °C. Under `OC1(c2ccccc2)Cc2ccccc21` (stereo unspecified) stands 68 °C; under `CN(C)c1ccc(N=C=O)cc1`, 38 °C; under `O=c1/c(=C/c2ccc3c(c2)OCO3)sc2n1CCCN=2`, 151 °C. `Cc1ccc(C)n1-c1ccsc1C(=O)NN` showed a melting point of 135 to 136 °C. With `CCCCOc1ccc(/C=N/c2ccc(C(C)=O)cc2)cc1` the figure was 80 to 128 °C; with `NC1C2CN(c3nc4c(cc3F)c(=O)c(C(=O)O)cn4-c3ccc(F)cc3F)CC12` (stereo unspecified), 246 °C; with `CCCCCCCCCCCCC(C)C`, -8 °C. In turn, `CC1(C)OC(=O)C(c2ccccc2)C(=O)O1` displayed a melting point of 135 to 140 °C.

With `Oc1ccc2c(O)c3ccccc3cc2c1O`, the melting point is 208 °C. Under `Nc1ccc([N+](=O)[O-])c(Cl)c1` stands 159 °C; under `CC1(O)CC(c2ccccc2)C([N+](=O)[O-])C(c2ccccc2N)O1` (stereo unspecified), 148 °C; under `FC(F)(F)c1cc(-c2ccc3c(c2)OCO3)n[nH]1`, 177 to 179 °C. Under `CC(=O)OC[C@@H](OC(C)=O)[C@H](OC(C)=O)[C@H](OC(C)=O)[C@@H](OC(C)=O)C(=O)CBr` stands 123 to 125 °C; under `CC1CCCC1C` (stereo unspecified), -54 °C. With `NCC(F)C(=O)O` (racemic) the figure was 222 to 223 °C; with `COc1ccccc1-n1[nH]cc2c(=O)ncnc1-2`, 271 °C; with `O=C1CC(=P(c2ccccc2)(c2ccccc2)c2ccccc2)C(=O)O1`, 167 °C. Regarding `Oc1ccc(O)c(Cl)c1`, the melting point was 108 °C. `CC1(C)CC(=O)C2=C(C1)Nc1ccc3ccccc3c1C2c1ccc(O)cc1` (stereo unspecified): the melting point was 314 °C. Turning to `CS(=O)(=O)c1ccc(Cl)cc1`, the melting point was determined as 97 °C.

Turning to `COc1ccc(OCCBr)cc1`, the melting point was 46 to 50 °C. With `C1CCC2NCCCC2C1` (stereo unspecified) the figure was 37.5 to 45 °C; with `N#Cc1cccnc1N1CCNCC1`, 76 to 78 °C; with `O=C(CBr)c1ccc(C(=O)CBr)cc1`, 173 °C.

Regarding `Nc1ccc(C2(c3ccc(N)cc3)OC(=O)c3ccccc32)cc1`, the melting point came to 203 °C. With `CNC(=O)COC1CCN(C(=O)OC(C)(C)C)CC1`, the melting point was 95 °C. Under `C/C=C/CCCCCCCC` stands -48.3 °C; under `C=CCCCCCCCCC(=O)OC`, -27.5 °C; under `COS(=O)(=O)c1ccc([N+](=O)[O-])cc1`, 94 °C. `O=[N+]([O-])c1ccc(Sc2ccccc2)cc1` showed a melting point of 56 °C. With `COC1CC1` the figure was -119 °C. Under `O=C(c1ccccc1)c1ccsc1C(=O)O` stands 152 °C; under `COc1ccc(Oc2ccc(C(N)=NO)cc2[N+](=O)[O-])cc1`, 174 to 177 °C; under `COc1ccc(C(=O)c2cccc(C)c2)cc1OC`, 93 °C. `Cc1cc(O)cc(C)c1C#N` displayed a melting point of 176 to 177 °C. Regarding `CC(/N=N/c1cc(Cl)cc(Cl)c1O)=C(/C(=O)N1CCOCC1)N1CCOCC1`, the melting point was 76.5 °C. With `Nc1nnc(Cc2ccccc2)[nH]1` the figure was 171 to 173 °C; with `O=c1[nH]cc(Br)c(=O)[nH]1`, 310 °C; with `Fc1cccc(-n2cc[nH]c2=S)c1`, 162 to 164 °C.

In turn, `Oc1ccc(I)cn1` gave a melting point of 190 °C. Under `CC1(C)CCCC(O)C1` (stereo unspecified) stands 11.5 °C; under `CC1=CC(=C(C#N)C#N)C=C(C=Cc2ccc(N(C)C)cc2)O1`, 212 °C. As for `CCC(C(=O)Nc1cccc2ccccc12)C1CCC(OC)CC1` (stereo unspecified), the melting point is 163 °C. Under `CC(C)(C)OC(=O)NCCNc1ccc(C(F)(F)F)cc1N` stands 129 to 132 °C; under `COc1ccc2sc(S)nc2c1`, 196 °C. With `COC(=O)c1cccc(N)c1` the figure was 52 to 55 °C; with `COC(=O)CC(=O)c1cccnc1`, 34 to 42 °C. For `C#CC(C)(CC)OC(=O)c1ccccc1C(=O)O` (stereo unspecified), the melting point worked out at 97 °C. With `COC(=O)c1sccc1N=C=S` the figure was 57 to 59 °C; with `C[Si]1(C)O[Si](C)(C)O[Si](C)(C)O[Si](C)(C)O[Si](C)(C)O1`, -38 °C. As for `O=c1[nH]c2scc(-c3ccccc3)c2c(=O)n1-c1ccc(Cl)c(Cl)c1`, the melting point lay within 274 to 276 °C. `O=S1(=O)OC2(c3ccccc31)c1ccc(O)c(O)c1Oc1c2ccc(O)c1O` displayed a melting point of 300 °C. Under `C[C@H](Cl)C(=O)O` stands 4 °C. On to `Cc1cc(C(N)=S)no1`, for which the melting point lay within 169 to 172 °C.

For `O=S(=O)(Cl)Cc1ccccc1Br`, the melting point lay in the range of 78 to 80 °C. As to `CCc1cccc(Cc2ccccc2)c1`, the melting point is -9 °C. Under `CC(C)(C)OC(=O)N1CCC[C@H]1CO` stands 61 °C. With `Cc1nnc(-c2ccccn2)nc1C`, the melting point stood at 85 °C. With `COc1ccc(C(C)=O)cc1Cl` the figure was 75 °C; with `CC(C)(C)OC(=O)c1n[nH]c2nc(F)ccc12`, 166 to 168 °C; with `Clc1cc2c(oc3c(Cl)c(Cl)c(Cl)c(Cl)c32)c(Cl)c1Cl`, 233 °C.

As to `COc1cc([N+](=O)[O-])ccc1O`, the melting point lay within 99 to 104 °C. As for `Cn1ccc2c(S(=O)(=O)Cl)cccc21`, the melting point was 94 to 98 °C.

The molecule `O=S(=O)(Cl)c1ccc(Cl)cc1Cl` came in with a melting point of 54 °C. `O/N=C(/C=Cc1ccccc1)c1ccccc1`: the melting point lay in the range of 115 to 116 °C.

For the molecule `Nc1ccc(CC(N)C(=O)O)cc1` (racemic), the melting point was 255 to 258 °C. Under `Nc1c(F)cc(F)cc1Br` stands 40 °C; under `CC(=O)OC1(C(C)=O)CCC2(C)C(CCC3C4CCCC4(C)CCC32)C1` (stereo unspecified), 164 to 166 °C; under `Cc1n[nH]cc1-c1ccccc1`, 142 °C. In turn, `O=C(O)c1ccc(-c2ccco2)nc1` showed a melting point of 200 °C. With `O=C(O)C(CO)c1ccccc1` (stereo unspecified) the figure was 118 °C; with `S=C=Nc1ccc(N2CCOCC2)cc1`, 84 to 85 °C. Molecule `OCc1ccc(F)cc1` gave a melting point of 23 °C. Under `CC12CCC(OC=O)CC1CCC1C2CCC2(C)C1CCC2(O)C#Cc1ccccc1` (stereo unspecified) stands 205 °C; under `CCOC(=O)CCc1ccc2c(c1)NC(=O)CC2`, 124 °C. `CC(C)(C)c1cc(C(C)(C)C)c(O)cc1O`: the melting point is 120 to 121 °C. Under `O=C1C(Cl)=C(Cl)C(=O)N1c1ccc(F)cc1` stands 241 °C; under `COc1ccc(C#N)c(OC)c1OC`, 56 °C. Under `CC(=O)OC1CCC2C3CCC4CC=CCC4(C)C3CCC12C` (stereo unspecified) stands 93 to 94 °C; under `COc1cc2c(cc1OC)CN1C(=O)C(C)NC(=O)C1C2` (stereo unspecified), 234 °C; under `O=C(O)CP(=O)(O)O`, 144 °C.

In turn, `Cn1c(=O)c(C2=NNC(=O)C2=NNc2ccccc2Cl)c(O)c2ccccc21` showed a melting point of 264 °C. With `Oc1cc(C(F)(F)F)nc2cc(Cl)cc(Cl)c12` the figure was 230 °C. Under `Oc1c(Cl)cc(Cl)cc1Sc1cc(Cl)cc(Cl)c1O` stands 188 °C; under `COc1cc(/C=N/N=C/c2ccc(OCc3ccccc3)c(OC)c2)ccc1OCc1ccccc1`, 216 °C.

Turning to `CCOC(=O)C1=C(C)NC(=O)NC1c1ccc([N+](=O)[O-])cc1` (stereo unspecified), the melting point was 208 °C. With `N#Cc1c(N=[N+]([O-])c2cnn(-c3ccccc3)c2C#N)cnn1-c1ccccc1` the figure was 265 °C; with `CC(C(O)c1ccc(O)cc1)N1CCC(Cc2ccccc2)CC1` (stereo unspecified), 114 °C; with `N#C/C(=C\c1cccnc1)c1nc2ccccc2[nH]1`, 228 °C. With `CCOC(=O)CC(=O)c1cc(OC)c(OC)c(OC)c1` the figure was 86 to 91 °C; with `C#Cc1ccc(Br)cc1`, 66 °C. Under `O=C(O)c1ccc2cc[nH]c2c1` stands 248 to 254 °C; under `CC(C)(C)N(NC(=O)c1ccccc1)C(=O)c1cc(F)c(F)c(F)c1F`, 158 °C. With `CC(C)(C)c1ccc(S(=O)(=O)NCCBr)cc1`, the melting point was in the range of 76 to 78 °C. As to `CC(Oc1ccc(Oc2ccc(Cl)cc2Cl)cc1)C(=O)O` (stereo unspecified), the melting point worked out at 120 °C. With `COc1c(OC)c(OC(C)=O)c2c(Cl)cccc2c1OC(C)=O` the figure was 134 °C. Under `O=C(O)c1ccc2occc2c1` stands 189 to 190 °C; under `COC1(OC)c2ccccc2C(O)(c2ccccc2)c2ccccc21`, 189 °C. Under `FC(F)(F)C(F)(Br)C(F)(F)Br` (stereo unspecified) stands -95 °C. The molecule `CCCCCBr` had a melting point of -92.7 °C. The molecule `COc1ccc(Br)cc1S(=O)(=O)Cl` showed a melting point of 114 °C.

In turn, `CC(=O)c1ccc(-c2ccccc2OC(F)(F)F)o1` came in with a melting point of 40 to 47 °C. With `NC(=O)C(F)(F)Cl` the figure was 82 °C; with `COC(=O)c1ccc([N+](=O)[O-])c(O)c1`, 91 °C; with `O=[N+]([O-])c1ccc(Oc2ccc(C(F)(F)F)cc2Cl)cc1`, 68 °C. Under `S=C=Nc1ccc(Oc2ccccc2)cc1` stands 42 °C.
